Source: patent US4652575A, “2-(ethylene-thio methyl furanyl)amino thiazole derivatives having acid secretion inhibiting activity” (Medosan Industrie Biochimiche Riunite S.p.A., priority 1984, dated 1987)
Like-named read-outs stand apart in the source and are kept apart here.

Columns and labels:
gastric acid secretion = details: experimental tests on animals and humans; prior art; cited from earlier work
histamine H2 receptors [1] = target: T1, histamine H2 receptors (Cavia porcellus, UniProt P47747); details: Daly M. J., Br. J. Pharmac., 72, 49, 1982; cited from earlier work
T1 construct: tests on insulated atrium auricolas of Guinea pig heart; from tissue; host or cells: isolated guinea pig heart atrium
T1 sequence (P47747 whole entry): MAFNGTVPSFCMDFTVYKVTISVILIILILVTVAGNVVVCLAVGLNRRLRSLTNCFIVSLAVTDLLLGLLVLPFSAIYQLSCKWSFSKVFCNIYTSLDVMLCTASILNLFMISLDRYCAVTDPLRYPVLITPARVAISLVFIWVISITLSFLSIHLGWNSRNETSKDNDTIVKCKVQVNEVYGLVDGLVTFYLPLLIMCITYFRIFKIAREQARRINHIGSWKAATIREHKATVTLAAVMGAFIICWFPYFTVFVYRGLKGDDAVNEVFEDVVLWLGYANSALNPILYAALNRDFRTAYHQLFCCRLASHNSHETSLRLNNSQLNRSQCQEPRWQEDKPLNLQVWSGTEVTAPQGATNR

gastric secretion = assay: Activity on gastric secretion "in vivo" (volume and total acidity of gastric juice after pylorus tieing, Shay); parameters: species or system male Wistar rats; details: for ED50 / change in vivo at 20 mg/kg: Rattus norvegicus, po; for ED50: read-out: DE50 in rat calculated on total acidity (mEq/4 hours); for Total acidity gastric juice secretion / Volume gastric juice secretion / change in vivo at 20 mg/kg: 20 mg/kg oral; for ability to reduce the gastric acid secretion (in words): volume and total acidity of gastric juice
Protocol: (§1) The preparations were a solution of the substances in 2.5% citric acid for the "in vitro" test and 5% citric acid for the "in vivo" test respectively. Citric acid was diluted in normal physiologic saline at neutral pH.
The ability of the compounds according to the present invention to inhibit the gastric secretion was studied "in vivo" both by evaluating the volume reduction of gastric juice, and by measuring the total acidity of same after administration of the substances under test according to the Takeda method (see the aforementioned literature).
To this end, tests have been made on male Wistar rats of an average weight of 200 g. The animals, 10 for each substance, were placed into individual cages provided with ground grating in order to avoid coprophagy, without food but with free access to water for 24 hours before test. […] Four hours later the animals were sacrificed and the gastric juice was collected, of which the volume expressed in ml and the total acidity expressed in mEq was measured. The gastric juice ([…] ) was titrated with 0.1N NaOH to pH 7 to determine the acid concentration. The total acidity was then calculated as the product of the total volume of gastric juice by the acid concentration.

histamine H2 receptors [2] = target: T1, histamine H2 receptors; assay: Antagonistic activity to the histamine H2 receptors "in vitro" on insulated atrium auricolas of Guinea pig heart; details: for inhibition at 10 µM / inhibition at 1 µM / inhibition at 0.1 µM / inhibition at 0.01 µM: guinea pig, 0.5 h, read-out: Antagonizing activity to histamine H2 receptors; for inhibition at 10 µM: compound 1·10^-5 M/L; for inhibition at 1 µM: compound 1·10^-6 M/L; for inhibition at 0.1 µM: compound 1·10^-7 M/L; for inhibition at 0.01 µM: compound 1·10^-8 M/L; for antagonistic action to the histamine H2 receptors (in words): in vitro
Protocol: as §1
This activity was evaluated "in vitro" by carrying out tests on insulated atrium auricolas of Guinea pig heart. […] Metering was carried out by placing the preparation into a vessel containing a Ringer-Locke solution wherein pure oxygen was bubbling, at a temperature of 37° C. A response of the organ "in vitro" was first established at cumulative histamine doses of 2.5.10^-7, 5.10^-7, 10^-6, 5.10^-6, 10^-5 M/L. After obtaining two constant lines with histamine at a time interval of one hour from one another, the substances under test were added to the bath and after a 30 minutes contact with the preparation, a new histamine response line in the presence of the substance under test was drawn. The activity was tested at various concentrations of the new compounds (10^-5, 10^-6, 10^-7 and in one case 10^-8 M/L).

in vivo = details: po; for LD50 at 360 h: mouse; for LD50: rat
Text: The animals were kept under observation by checking mortality and possible pain signs for 15 days from start of test.

[3] = 6 hours before pilorus tieing, read-out: Total acidity gastric juice secretion, Variation %
[4] = 6 hours before pilorus tieing, read-out: Volume gastric juice secretion, Variation %
[5] = 12 hours before pilorus tieing, read-out: Total acidity gastric juice secretion, Variation %
[6] = 12 hours before pilorus tieing, read-out: Volume gastric juice secretion, Variation %
[7] = 24 hours before pilorus tieing, read-out: Total acidity gastric juice secretion, Variation %
[8] = 24 hours before pilorus tieing, read-out: Volume gastric juice secretion, Variation %
[9] = 36 hours before pilorus tieing, read-out: Total acidity gastric juice secretion, Variation %
[10] = 36 hours before pilorus tieing, read-out: Volume gastric juice secretion, Variation %
[11] = per os, 1 hour before pilorus tieing

Question: For `CNC(=S)NCCCCc1cnc[nH]1` [Burimamide], which “reduction of gastric acid secretion (in words)” value (“reduction” for short) (gastric acid secretion) is on record?
Answer: effective to reduce the gastric acid secretion

Question: For `CN/C(=N/CCSCc1nc[nH]c1C)NC#N` [Cimetidine, reference compound], which “antagonism of histamine induced increase of contraction frequency of the insulated atrium (in words)” value (histamine H2 receptors [1]) is on record?
Answer: competitively antagonize

Question: And the “reduction” value (gastric acid secretion)?
Answer: effective to reduce the gastric acid secretion

Question: What about the ED50 (gastric secretion) of the same molecule?
Answer: 30 mg/kg

Question: And the inhibition at 10 µM (histamine H2 receptors [2]; histamine 1·10^-5 M/L)?
Answer: 28%

Question: And the inhibition at 10 µM (histamine H2 receptors [2]; histamine 1·10^-6 M/L)?
Answer: 100%

Question: What about the inhibition at 10 µM (histamine H2 receptors [2]; histamine 2,5·10^-7 M/L) of the same molecule?
Answer: 100%

Question: And the inhibition at 10 µM (histamine H2 receptors [2]; histamine 5·10^-6 M/L)?
Answer: 50%

Question: And the inhibition at 10 µM (histamine H2 receptors [2]; histamine 5·10^-7 M/L)?
Answer: 100%

Question: And the inhibition at 1 µM (histamine H2 receptors [2]; histamine 1·10^-5 M/L)?
Answer: 10%

Question: What about the inhibition at 1 µM (histamine H2 receptors [2]; histamine 1·10^-6 M/L) of the same molecule?
Answer: 90%

Question: And the inhibition at 1 µM (histamine H2 receptors [2]; histamine 2,5·10^-7 M/L)?
Answer: 100%

Question: What about the inhibition at 1 µM (histamine H2 receptors [2]; histamine 5·10^-6 M/L) of the same molecule?
Answer: 40%

Question: What about the inhibition at 1 µM (histamine H2 receptors [2]; histamine 5·10^-7 M/L) of the same molecule?
Answer: 90%

Question: And the inhibition at 0.1 µM (histamine H2 receptors [2]; histamine 1·10^-5 M/L)?
Answer: 0%

Question: What about the inhibition at 0.1 µM (histamine H2 receptors [2]; histamine 1·10^-6 M/L) of the same molecule?
Answer: 45%

Question: What about the inhibition at 0.1 µM (histamine H2 receptors [2]; histamine 2,5·10^-7 M/L) of the same molecule?
Answer: 80%

Question: What about the inhibition at 0.1 µM (histamine H2 receptors [2]; histamine 5·10^-6 M/L) of the same molecule?
Answer: 22%

Question: What about the inhibition at 0.1 µM (histamine H2 receptors [2]; histamine 5·10^-7 M/L) of the same molecule?
Answer: 80%

Question: Which results are given for `CN(C)Cc1ccc(CSCCNc2nc(-c3ccc4ccccc4c3)cs2)o1` [Example No. 6, 2-(2-(((5-(dimethylamino)methyl-2-furanyl)methyl)thio)ethyl)-amino-4-(2-naphthyl)-thiazole]?
Answer: LD50 at 360 h (in vivo): 2100 mg/kg; LD50 (in vivo): 2800 mg/kg; Total acidity gastric juice secretion (gastric secretion; 6 hours before pilorus tieing): 0,05 mEq/4 hours; Volume gastric juice secretion (gastric secretion; 6 hours before pilorus tieing): 3,0 ml/4 hours; Total acidity gastric juice secretion (gastric secretion; 12 hours before pilorus tieing): 0,04 mEq/4 hours; Volume gastric juice secretion (gastric secretion; 12 hours before pilorus tieing): 2,9 ml/4 hours; Total acidity gastric juice secretion (gastric secretion; 24 hours before pilorus tieing): 0,12 mEq/4 hours; Volume gastric juice secretion (gastric secretion; 24 hours before pilorus tieing): 4,5 ml/4 hours; Total acidity gastric juice secretion (gastric secretion; 36 hours before pilorus tieing): 0,12 mEq/4 hours; Volume gastric juice secretion (gastric secretion; 36 hours before pilorus tieing): 5,0 ml/4 hours; change in vivo at 20 mg/kg (gastric secretion; [3]): -70%; change in vivo at 20 mg/kg (gastric secretion; [4]): -43%; change in vivo at 20 mg/kg (gastric secretion; [5]): -73%; change in vivo at 20 mg/kg (gastric secretion; [6]): -37%; change in vivo at 20 mg/kg (gastric secretion; [7]): -29%; change in vivo at 20 mg/kg (gastric secretion; [8]): -20%; change in vivo at 20 mg/kg (gastric secretion; [9]): -25%; change in vivo at 20 mg/kg (gastric secretion; [10]): -11%; ED50 (gastric secretion; [11]): 1.8 mg/kg; ability to reduce the gastric acid secretion (in words) (gastric secretion): interesting ability; inhibition at 10 µM (histamine H2 receptors [2]; histamine 1·10^-5 M/L): 90%; inhibition at 10 µM (histamine H2 receptors [2]; histamine 1·10^-6 M/L): 100%; inhibition at 10 µM (histamine H2 receptors [2]; histamine 2,5·10^-7 M/L): 100%; inhibition at 10 µM (histamine H2 receptors [2]; histamine 5·10^-6 M/L): 90%; inhibition at 10 µM (histamine H2 receptors [2]; histamine 5·10^-7 M/L): 100%; inhibition at 1 µM (histamine H2 receptors [2]; histamine 1·10^-5 M/L): 40%; inhibition at 1 µM (histamine H2 receptors [2]; histamine 1·10^-6 M/L): 90%; inhibition at 1 µM (histamine H2 receptors [2]; histamine 2,5·10^-7 M/L): 100%; inhibition at 1 µM (histamine H2 receptors [2]; histamine 5·10^-6 M/L): 70%; inhibition at 1 µM (histamine H2 receptors [2]; histamine 5·10^-7 M/L): 100%; inhibition at 0.1 µM (histamine H2 receptors [2]; histamine 1·10^-5 M/L): 35%; inhibition at 0.1 µM (histamine H2 receptors [2]; histamine 1·10^-6 M/L): 70%; inhibition at 0.1 µM (histamine H2 receptors [2]; histamine 2,5·10^-7 M/L): 95%; inhibition at 0.1 µM (histamine H2 receptors [2]; histamine 5·10^-6 M/L): 50%; inhibition at 0.1 µM (histamine H2 receptors [2]; histamine 5·10^-7 M/L): 95%; inhibition at 0.01 µM (histamine H2 receptors [2]; histamine 1·10^-5 M/L): 15%; inhibition at 0.01 µM (histamine H2 receptors [2]; histamine 1·10^-6 M/L): 70%; inhibition at 0.01 µM (histamine H2 receptors [2]; histamine 2,5·10^-7 M/L): 95%; inhibition at 0.01 µM (histamine H2 receptors [2]; histamine 5·10^-6 M/L): 50%; inhibition at 0.01 µM (histamine H2 receptors [2]; histamine 5·10^-7 M/L): 85%; antagonistic action to the histamine H2 receptors (in words) (histamine H2 receptors [2]): interesting ability

Question: Which results are given for `CN(C)Cc1ccc(CSCCNc2nc(-c3ccc(-c4ccccc4)cc3)cs2)o1` [Example No. 5, 2-(2-(((5-(dimethylamino)methyl-2-furanyl)methyl)thio)ethyl)amino-4-(4-biphenyl)-thiazole]?
Answer: LD50 at 360 h (in vivo): 2300 mg/kg; LD50 (in vivo): 3300 mg/kg; Total acidity gastric juice secretion (gastric secretion; 6 hours before pilorus tieing): 0,08 mEq/4 hours; Volume gastric juice secretion (gastric secretion; 6 hours before pilorus tieing): 3,7 ml/4 hours; Total acidity gastric juice secretion (gastric secretion; 12 hours before pilorus tieing): 0,08 mEq/4 hours; Volume gastric juice secretion (gastric secretion; 12 hours before pilorus tieing): 3,8 ml/4 hours; Total acidity gastric juice secretion (gastric secretion; 24 hours before pilorus tieing): 0,13 mEq/4 hours; Volume gastric juice secretion (gastric secretion; 24 hours before pilorus tieing): 4,9 ml/4 hours; Total acidity gastric juice secretion (gastric secretion; 36 hours before pilorus tieing): 0,13 mEq/4 hours; Volume gastric juice secretion (gastric secretion; 36 hours before pilorus tieing): 4,4 ml/4 hours; change in vivo at 20 mg/kg (gastric secretion; [3]): -53%; change in vivo at 20 mg/kg (gastric secretion; [4]): -30%; change in vivo at 20 mg/kg (gastric secretion; [5]): -47%; change in vivo at 20 mg/kg (gastric secretion; [6]): -25%; change in vivo at 20 mg/kg (gastric secretion; [7]): -23%; change in vivo at 20 mg/kg (gastric secretion; [8]): -13%; change in vivo at 20 mg/kg (gastric secretion; [9]): -19%; change in vivo at 20 mg/kg (gastric secretion; [10]): -21%; ED50 (gastric secretion; [11]): 1.6 mg/kg; ability to reduce the gastric acid secretion (in words) (gastric secretion): interesting ability; inhibition at 10 µM (histamine H2 receptors [2]; histamine 1·10^-5 M/L): 100%; inhibition at 10 µM (histamine H2 receptors [2]; histamine 1·10^-6 M/L): 100%; inhibition at 10 µM (histamine H2 receptors [2]; histamine 2,5·10^-7 M/L): 100%; inhibition at 10 µM (histamine H2 receptors [2]; histamine 5·10^-6 M/L): 100%; inhibition at 10 µM (histamine H2 receptors [2]; histamine 5·10^-7 M/L): 100%; inhibition at 1 µM (histamine H2 receptors [2]; histamine 1·10^-5 M/L): 45%; inhibition at 1 µM (histamine H2 receptors [2]; histamine 1·10^-6 M/L): 70%; inhibition at 1 µM (histamine H2 receptors [2]; histamine 2,5·10^-7 M/L): 100%; inhibition at 1 µM (histamine H2 receptors [2]; histamine 5·10^-6 M/L): 60%; inhibition at 1 µM (histamine H2 receptors [2]; histamine 5·10^-7 M/L): 90%; inhibition at 0.1 µM (histamine H2 receptors [2]; histamine 1·10^-5 M/L): 25%; inhibition at 0.1 µM (histamine H2 receptors [2]; histamine 1·10^-6 M/L): 65%; inhibition at 0.1 µM (histamine H2 receptors [2]; histamine 2,5·10^-7 M/L): 95%; inhibition at 0.1 µM (histamine H2 receptors [2]; histamine 5·10^-6 M/L): 40%; inhibition at 0.1 µM (histamine H2 receptors [2]; histamine 5·10^-7 M/L): 85%; antagonistic action to the histamine H2 receptors (in words) (histamine H2 receptors [2]): interesting ability

Question: With `C/N=C(\S)NCCSCc1[nH]cnc1C` [Metiamide] as the molecule, how does the “reduction” value (gastric acid secretion) read?
Answer: effective to reduce the gastric acid secretion
